Reference: patent publication US8748481B2, “Method for treating gastrointestinal disorder” (Sucampo AG, priority 2004, dated 2014)
Marks after values point to notes of the source that are not given here.

Experiments:
[1] = system: patients with irritable bowel syndrome (IBS); assay: 48-week treatment of IBS patients: abdominal discomfort, abdominal bloating, severity of constipation (Example 3); type: in vivo, human; design: key to Abdominal discomfort, Change from Baseline, Median / Abdominal bloating, Change from Baseline, Median: change on 0 (absent) to 4 (very severe) scale; key to Severity of Constipation, Change from Baseline, Median: change on 0 (very loose) to 4 (very hard) scale; settings: for Abdominal bloating, Mean ± SD / Abdominal bloating, Median / Abdominal discomfort, Mean ± SD / Abdominal discomfort, Median / Severity of Constipation, Mean ± SD / Severity of Constipation, Median: scale 0-4
Description: Patients with irritable bowel syndrome (IBS) were treated with 48 μg of Compound A (24 μg of Compound A b.i.d) for 48 weeks.
In this study, we evaluated the following parameters. • 1) Abdominal discomfort • 2) Abdominal bloating • 3) Severity of Constipation
Each of Abdominal discomfort and Abdominal bloating was evaluated on a scale of: 0 (absent), 1 (mild), 2 (moderate), 3 (severe) and 4 (very severe) in the patients. Severity of Constipation was evaluated on a scale of: 0 (very loose), 1: (loose), 2: (normal), 3 (hard), 4 (very hard) in the patients.

[2] = system: subjects with occasional constipation; assay: MOS SF-36 quality of life assessment, 48-week study (Example 6); type: in vivo, human
Description: A 48-week multi-center study was performed to assess the safety and efficacy of 48 μg (total daily dose) of Compound A to subjects with occasional constipation. […] After 14-day drug-free washout period, they received orally 48 μg of Compound A (24 μg of […], b.i.d) daily for 48 weeks.
The subjects completed the Medical Outcomes Study (MOS) 36-item short form (SF-36), i.e., a conventionally used QOL assessment form, at enrollment (baseline) and end of treatment (Week 48). Components of the MOS SF-36 (Med Care 30(6),473-483, 1992) are outlined below: • Physical component: Physical Function; Role-Physical, Bodily Pain and General Health • Mental component: Vitality, Social Function, Role-Emotional and Mental Health
Each of the 8 components was scored within the guidelines of the publisher, including the publisher's guidelines for imputing missing variables. The change from baseline in each of the 8 component scores at the end of treatment (Week 48) were recorded and evaluated with paired t-tests.

CCCCC(F)(F)C(=O)CCC1C(O)CC(=O)C1CCCCCCC(=O)O (stereo not drawn) [Compound A, 13,14-dihydro-15-keto-16,16-difluoro-PGE1]
Efficacy in IBS patients (Tables 2 to 4) ([1]; 48 μg/day, 12 months treatment): effective
Abdominal bloating, Mean ± SD ([1]; Baseline): 2.23 ± 0.927 (183)
Abdominal bloating, Median ([1]; Baseline): 2.00
Abdominal discomfort, Mean ± SD ([1]; Baseline): 1.95 ± 0.850 (183)
Abdominal discomfort, Median ([1]; Baseline): 2.00
Severity of Constipation, Mean ± SD ([1]; Baseline): 2.95 ± 0.751 (183)
Severity of Constipation, Median ([1]; Baseline): 3.00
Abdominal bloating, Change from Baseline, Mean ± SD ([1]; End of Treatment, 48 μg/day): −0.73 ± 1.075 (183)
Abdominal bloating, Change from Baseline, Median ([1]; End of Treatment, 48 μg/day): −1.00
Abdominal discomfort, Change from Baseline, Mean ± SD ([1]; End of Treatment, 48 μg/day): −0.66 ± 1.112 (183)
Abdominal discomfort, Change from Baseline, Median ([1]; End of Treatment, 48 μg/day): −1.00
Severity of Constipation, Change from Baseline, Mean ± SD ([1]; End of Treatment, 48 μg/day): −1.11 ± 1.148 (183)
Severity of Constipation, Change from Baseline, Median ([1]; End of Treatment, 48 μg/day): −1.00
Abdominal bloating, Mean ± SD ([1]; End of Treatment, 48 μg/day): 1.50 ± 1.005 (183)
Abdominal bloating, Median ([1]; End of Treatment, 48 μg/day): 1.00
Abdominal discomfort, Mean ± SD ([1]; End of Treatment, 48 μg/day): 1.28 ± 1.020 (183)
Abdominal discomfort, Median ([1]; End of Treatment, 48 μg/day): 1.00
Severity of Constipation, Mean ± SD ([1]; End of Treatment, 48 μg/day): 1.84 ± 1.120 (183)
Severity of Constipation, Median ([1]; End of Treatment, 48 μg/day): 2.00
Abdominal bloating, Change from Baseline, Mean ± SD ([1]; Follow-Up): −0.69 ± 1.109 (121)
Abdominal bloating, Change from Baseline, Median ([1]; Follow-Up): −1.00
Abdominal discomfort, Change from Baseline, Mean ± SD ([1]; Follow-Up): −0.55 ± 1.080 (121)
Abdominal discomfort, Change from Baseline, Median ([1]; Follow-Up): −1.00
Severity of Constipation, Change from Baseline, Mean ± SD ([1]; Follow-Up): −0.88 ± 1.122 (121)
Severity of Constipation, Change from Baseline, Median ([1]; Follow-Up): −1.00
Abdominal bloating, Mean ± SD ([1]; Follow-Up): 1.55 ± 0.957 (121)
Abdominal bloating, Median ([1]; Follow-Up): 2.00
Abdominal discomfort, Mean ± SD ([1]; Follow-Up): 1.40 ± 0.996 (121)
Abdominal discomfort, Median ([1]; Follow-Up): 1.00
Severity of Constipation, Mean ± SD ([1]; Follow-Up): 2.07 ± 0.946 (121)
Severity of Constipation, Median ([1]; Follow-Up): 2.00
Abdominal bloating, Change from Baseline, Mean ± SD ([1]; Week 12, 48 μg/day): −0.84 ± 1.045 (135)
Abdominal bloating, Change from Baseline, Median ([1]; Week 12, 48 μg/day): −1.00
Abdominal discomfort, Change from Baseline, Mean ± SD ([1]; Week 12, 48 μg/day): −0.79 ± 0.993 (135)
Abdominal discomfort, Change from Baseline, Median ([1]; Week 12, 48 μg/day): −1.00
Severity of Constipation, Change from Baseline, Mean ± SD ([1]; Week 12, 48 μg/day): −1.16 ± 1.099 (135)
Severity of Constipation, Change from Baseline, Median ([1]; Week 12, 48 μg/day): −1.00
Abdominal bloating, Mean ± SD ([1]; Week 12, 48 μg/day): 1.43 ± 0.919 (135)
Abdominal bloating, Median ([1]; Week 12, 48 μg/day): 1.00
Abdominal discomfort, Mean ± SD ([1]; Week 12, 48 μg/day): 1.16 ± 0.836 (135)
Abdominal discomfort, Median ([1]; Week 12, 48 μg/day): 1.00
Severity of Constipation, Mean ± SD ([1]; Week 12, 48 μg/day): 1.76 ± 1.003 (135)
Severity of Constipation, Median ([1]; Week 12, 48 μg/day): 2.00
Abdominal bloating, Change from Baseline, Mean ± SD ([1]; Week 18, 48 μg/day): −1.07 ± 1.068 (111)
Abdominal bloating, Change from Baseline, Median ([1]; Week 18, 48 μg/day): −1.00
Abdominal discomfort, Change from Baseline, Mean ± SD ([1]; Week 18, 48 μg/day): −0.97 ± 1.031 (111)
Abdominal discomfort, Change from Baseline, Median ([1]; Week 18, 48 μg/day): −1.00
Severity of Constipation, Change from Baseline, Mean ± SD ([1]; Week 18, 48 μg/day): −1.59 ± 1.148 (111)
Severity of Constipation, Change from Baseline, Median ([1]; Week 18, 48 μg/day): −2.00
Abdominal bloating, Mean ± SD ([1]; Week 18, 48 μg/day): 1.19 ± 0.837 (111)
Abdominal bloating, Median ([1]; Week 18, 48 μg/day): 1.00
Abdominal discomfort, Mean ± SD ([1]; Week 18, 48 μg/day): 0.98 ± 0.874 (111)
Abdominal discomfort, Median ([1]; Week 18, 48 μg/day): 1.00
Severity of Constipation, Mean ± SD ([1]; Week 18, 48 μg/day): 1.33 ± 0.985 (111)
Severity of Constipation, Median ([1]; Week 18, 48 μg/day): 1.00
Abdominal bloating, Change from Baseline, Mean ± SD ([1]; Week 24, 48 μg/day): −0.95 ± 1.102 (107)
Abdominal bloating, Change from Baseline, Median ([1]; Week 24, 48 μg/day): −1.00
Abdominal discomfort, Change from Baseline, Mean ± SD ([1]; Week 24, 48 μg/day): −0.82 ± 1.035 (107)
Abdominal discomfort, Change from Baseline, Median ([1]; Week 24, 48 μg/day): −1.00
Severity of Constipation, Change from Baseline, Mean ± SD ([1]; Week 24, 48 μg/day): −1.40 ± 1.036 (107)
Severity of Constipation, Change from Baseline, Median ([1]; Week 24, 48 μg/day): −1.00
Abdominal bloating, Mean ± SD ([1]; Week 24, 48 μg/day): 1.26 ± 0.915 (107)
Abdominal bloating, Median ([1]; Week 24, 48 μg/day): 1.00
Abdominal discomfort, Mean ± SD ([1]; Week 24, 48 μg/day): 1.09 ± 0.917 (107)
Abdominal discomfort, Median ([1]; Week 24, 48 μg/day): 1.00
Severity of Constipation, Mean ± SD ([1]; Week 24, 48 μg/day): 1.50 ± 0.965 (107)
Severity of Constipation, Median ([1]; Week 24, 48 μg/day): 1.00
Abdominal bloating, Change from Baseline, Mean ± SD ([1]; Week 36, 48 μg/day): −1.00 ± 1.134 (57)
Abdominal bloating, Change from Baseline, Median ([1]; Week 36, 48 μg/day): −1.00
Abdominal discomfort, Change from Baseline, Mean ± SD ([1]; Week 36, 48 μg/day): −0.77 ± 0.926 (57)
Abdominal discomfort, Change from Baseline, Median ([1]; Week 36, 48 μg/day): −1.00
Severity of Constipation, Change from Baseline, Mean ± SD ([1]; Week 36, 48 μg/day): −1.33 ± 1.123 (57)
Severity of Constipation, Change from Baseline, Median ([1]; Week 36, 48 μg/day): −1.00
Abdominal bloating, Mean ± SD ([1]; Week 36, 48 μg/day): 1.05 ± 0.854 (57)
Abdominal bloating, Median ([1]; Week 36, 48 μg/day): 1.00
Abdominal discomfort, Mean ± SD ([1]; Week 36, 48 μg/day): 0.93 ± 0.799 (57)
Abdominal discomfort, Median ([1]; Week 36, 48 μg/day): 1.00
Severity of Constipation, Mean ± SD ([1]; Week 36, 48 μg/day): 1.39 ± 0.921 (57)
Severity of Constipation, Median ([1]; Week 36, 48 μg/day): 1.00
Abdominal bloating, Change from Baseline, Mean ± SD ([1]; Week 48, 48 μg/day): −0.94 ± 0.802 (52)
Abdominal bloating, Change from Baseline, Median ([1]; Week 48, 48 μg/day): −1.00
Abdominal discomfort, Change from Baseline, Mean ± SD ([1]; Week 48, 48 μg/day): −0.81 ± 0.908 (52)
Abdominal discomfort, Change from Baseline, Median ([1]; Week 48, 48 μg/day): −1.00
Severity of Constipation, Change from Baseline, Mean ± SD ([1]; Week 48, 48 μg/day): −1.37 ± 1.095 (51)
Severity of Constipation, Change from Baseline, Median ([1]; Week 48, 48 μg/day): −1.00
Abdominal bloating, Mean ± SD ([1]; Week 48, 48 μg/day): 1.12 ± 0.832 (52)
Abdominal bloating, Median ([1]; Week 48, 48 μg/day): 1.00
Abdominal discomfort, Mean ± SD ([1]; Week 48, 48 μg/day): 0.87 ± 0.929 (52)
Abdominal discomfort, Median ([1]; Week 48, 48 μg/day): 1.00
Severity of Constipation, Mean ± SD ([1]; Week 48, 48 μg/day): 1.37 ± 0.894 (51)
Severity of Constipation, Median ([1]; Week 48, 48 μg/day): 1.00
Effect on QOL of the patients (SF-36) ([2]; 48 μg/day, 48 weeks): improves the QOL
SF36 Bodily Pain score, Mean ([2]; Baseline): 47.53
SF36 General Health score, Mean ([2]; Baseline): 51.52
SF36 Mental Health score, Mean ([2]; Baseline): 50.60
SF36 Physical Function score, Mean ([2]; Baseline): 49.04
SF36 Role-Emotional score, Mean ([2]; Baseline): 49.52
SF36 Role-Physical score, Mean ([2]; Baseline): 49.75
SF36 Social Function score, Mean ([2]; Baseline): 50.12
SF36 Vitality score, Mean ([2]; Baseline): 50.61
SF36 Bodily Pain score, Mean change from baseline ([2]; Week 48, 48 μg/day): 3.38**
SF36 General Health score, Mean change from baseline ([2]; Week 48, 48 μg/day): 1.47*
SF36 Mental Health score, Mean change from baseline ([2]; Week 48, 48 μg/day): 1.97**
SF36 Physical Function score, Mean change from baseline ([2]; Week 48, 48 μg/day): 2.48**
SF36 Role-Emotional score, Mean change from baseline ([2]; Week 48, 48 μg/day): 1.22
SF36 Role-Physical score, Mean change from baseline ([2]; Week 48, 48 μg/day): 1.95**
SF36 Social Function score, Mean change from baseline ([2]; Week 48, 48 μg/day): 2.22**
SF36 Vitality score, Mean change from baseline ([2]; Week 48, 48 μg/day): 2.89**
